ChEMBL document CHEMBL6083251, “"Pseudosubstrate Envelope"/Free Energy Perturbation-Guided Design and Mechanistic Investigations of Benzothiazole HIV Capsid Modulators with High Ligand Efficiency” (J Med Chem, 2024)

What was measured:
[1] = test system: Human immunodeficiency virus 1; test: Anti-HIV activity against wild type HIV-1 IIIB infected in human MT4 cells assessed as protection against virus-induced cytopathic effect incubated for 5 days by spectrophotometric based MTT assay; type: functional, organism-based; details: Human immunodeficiency virus 1, IIIB, MT4, 120 h
[2] = test system: Human immunodeficiency virus 2; test: Anti-HIV activity against HIV-2 ROD infected in human MT-4 cells assessed as protection against virus-induced cytopathic effect incubated for 5 days by spectrophotometric based MTT assay; type: functional, organism-based; details: Human immunodeficiency virus 2, ROD, MT4, 120 h
[3] = test system: MT4; test: Cytotoxicity against human MT4 cells assessed as reduction in cell viability incubated for 5 days by spectrophotometric based MTT assay; type: functional; details: MT4, 120 h, time 5 day
[4] = target: Structural capsid protein (Human immunodeficiency virus 1) (UniProt Q76129); test: Binding affinity to monomeric HIV-1 NL4.3 capsid protein assessed as dissociation rate (Koff) by SPR assay; details: filed as modulator
[5] = target: Structural capsid protein (Human immunodeficiency virus 1) (UniProt Q76129); test: Binding affinity to monomeric HIV-1 NL4.3 capsid protein assessed as residence time by SPR assay; details: filed as modulator
[6] = target: Structural capsid protein (Human immunodeficiency virus 1) (UniProt Q76129); test: Binding affinity to hexameric HIV-1 NL4.3 capsid protein assessed as dissociation rate (Koff) by SPR assay; details: filed as modulator
[7] = target: Structural capsid protein (Human immunodeficiency virus 1) (UniProt Q76129); test: Binding affinity to hexameric HIV-1 NL4.3 capsid protein assessed as residence time by SPR assay; details: filed as modulator
[8] = Metabolic stability in human liver microsomes assessed as half life at 1 uM incubated for 60 mins by LC-MS/MS analysis; type: ADME, Microsome
[9] = Metabolic stability in human liver microsomes assessed as intrinsic clearance at 1 uM incubated for 60 mins by LC-MS/MS analysis; type: ADME, Microsome; details: read-out: CLH
[10] = test system: Human immunodeficiency virus 1; test: Anti-HIV activity against HIV-1 IIIB infected in human MT4 cells assessed as protection against virus-induced cytopathic effect incubated for 5 days by spectrophotometric based MTT assay; details: Human immunodeficiency virus 1, IIIB, MT4, 120 h

Chain of Structural capsid protein (Human immunodeficiency virus 1) (Q76129 as listed by the source): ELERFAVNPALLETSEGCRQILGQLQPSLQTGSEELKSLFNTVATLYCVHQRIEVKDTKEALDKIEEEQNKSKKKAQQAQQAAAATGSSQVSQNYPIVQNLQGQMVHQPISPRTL

For `Cc1[nH]c2ccccc2c1CC(=O)N[C@@H](Cc1ccccc1)C(=O)N(C)c1ccccc1`, the EC50 [1] was 1060 nM, the EC50 [2] was 2840 nM and the CC50 [3] was 134000 nM. The K [4] was 2.21 10^-1/s, the TIME [5] was 0.00125 h and the K [6] was 4.48 10^-1/s. It also gave a TIME [7] of 0.000617 h, a half-life at 1 µM [8] of 42 s and a CLint scaled at 1 µM [9] of 2110 mL/min/kg. For the same compound, the EC50 [10] was 800 nM.
